For experiment [1], the system named is primary adult cortical astrocytes. Description: Astrocyte scratch assay (injury model). The format is cell-based, mouse. As to conditions: astrocytes from 6-month-old female mice, 48 hours after scratching. The protocol:
FIGS. 5A-5C: 5c(i) reduces injury size. Primary adult cortical astrocytes from 6-month-old female mice were scratched to form the injury model and immediately after were incubated with 5c(i) for 48 hours (5A). Graph represents mean t SEM. Images represent the 5B) Vehicle and 5C) 5000 nM 5c(i) treated groups stained with Phalloidin. Linear regression was conducted to determine statistical significance. N=10. Scale bar=500 μm.
For neuronal cultures, the neuron enriched fraction was added onto plastic bottom (Greiner-Bio, 781091) plates and incubated inside a 5% C02 incubator at 37° C. for 2 days. Pharmaceutical agents were added at the time of cell plating. For astrocyte cultures, the glia fraction was added onto plastic bottom (Greiner-Bio, 781091) plates and incubated inside a 5% C02 incubator at 37° C. for 5 days for 100% confluency to be reached. Then, the astrocytes were scratched to form the scratch assay model and the pharmaceutical agents were added at the time of scratching. 10,000 cells were plated per well with 0.056 cm^2 growth area for both the neuronal and glia cultures.
Cell cultures were fixed with 4% paraformaldehyde (PFA, 15 min) after the completion of the respective in vitro experiment. […]

Experiment [2] has as its system severe T8 contusion/compression SCI. The experiment is described as follows: Preclinical SCI model: liver Masson's trichrome collagen deposition. The format is in vivo, mouse. As to conditions: 7 weeks post injury. Here is the method:
N=6-8. […] Student's T-test.
Mice were sacrificed 7 weeks after injury by a lethal dose of Fatal plus (pentobarbital), then, transcardial perfusion was performed with PBS-Heparin (10,000 unit/L, 20 mL, 5 mL/min) followed by a 4% paraformaldehyde fixative solution (30 mL/mouse, at 5 mL/min). Right after perfusion, tissues were immersed in 4% PFA for 24 hours, transferred to 15% sucrose for 24 hours, then transferred to 30% sucrose for 24 hours before being embedded. Subsequently, the spinal cords (at injury site±1 mm) were cut into 25 μm-thick transverse sections using a freezing microtome (THERMO FISHER SCIENTIFIC® (laboratory reagents), Microm HM550). […] The images were acquired using VS120 Virtual Slide Microscope (Olympus) and Axio Observer 7 (ZEISS® (optical products)) and analyzed with QuPath 0.4.3. […] The lesion size was measured by tracing the glial scar border labeled with GFAP surrounding a DAPI^+ inner region. Cavity size was measured by measuring the region within the spinal cord without any visible nuclei yet surrounded by GFAP labeled glial scar. Three spinal cord sections per animal were imaged and analyzed. […] Images were quantified using QuPath software. […] Collagen accumulation was quantified using automated QuPath software to determine the extent of fibrosis.

This passage reports artificial wound closure and liver collagen deposition results from patent publication US20260042801A1, “COMPOSITIONS AND METHODS FOR DYE-BOUND CYCLIZED PEPTIDES FOR MEDICAL USE” (The Texas A&M University System, priority 2022, published 2026).

In the case of “C-DIRG-C BODIPY® (fluorescent dye) [5c(i)]”, in experiment [1], the artificial wound closure entry was “closing at an expedited rate”. Also, the liver collagen deposition result in experiment [2] was “alleviated”.
